According to PMC12147183, “Lacritin cleavage-potentiated targeting of iron - respiratory reciprocity promotes bacterial death” (The Journal of Biological Chemistry, 2025):
Values after ≈ are worked out from the molar mass of the structure shown. Peptide text beside a SMILES is read from it.

How the values were obtained:
[1] = test system: PA14 fed to C. elegans; format: in vivo, Caenorhabditis elegans
Protocol: L1 stage C. elegans worms on Nematode Growth Medium (NGM) plates with E. coli OP50 as a food source were cultivated at room temperature in a humidified chamber until maturation into sterile young adults ([84]), carefully washed off with M9 minimal salts and then collected by pelleting (1200g, 2 min). […] After 3 days, bacteria and debris were removed leaving 50 μl per well of worms to which 50 μl of 6 μM SYTOX Orange was added in M9 minimal salts. The next day, images were captured using both transmission and epifluorescence (excitation/detection = 535/610 nm) on an AMG EVOS FL AMF-4301 fluorescence microscope (Thermo Fisher Scientific).

[2] = test system: P. aeruginosa PA14
Protocol: After overnight incubation at 37 °C, plates were analyzed on a ChemiDoc XRS (Bio-Rad).

[3] = test system: Keio E. coli K-12 single gene knockout strains; experiment: Forward genetic N-104 resistance screen of Keio single gene knockouts; format: cell-based, Escherichia coli; settings: 100 μM N-104, slope 5 h after/5 h before; resistance cutoff 0.75
Protocol: We took advantage of the Alamar Blue viability assay ([85]). Briefly, wells of deep 96-well plates (1896–2000, USA Scientific) each containing 0.8 ml of LB broth supplemented with 50 μg/ml of kanamycin (BP906–5, Fisher Scientific) were singly inoculated with 10 μl aliquots of each of the 3884 Keio E. coli K-12 single gene knockout strains for 16 h at 37 °C on a rotator (160 rpm). A total of 200 μl of a 1:1000 dilution of each (∼10^6 cfu/ml) in 1 mM Na2HPO4, 0.18 mM KH2PO4, 0.27 mM KCl, 13.7 mM NaCl (pH 7.2) containing 10% Alamar Blue (DAL1100, Invitrogen) in wells of black 96-well plates was monitored hourly for 5 h in a SpectraMax M3 plate reader (Molecular Devices) with 3 s agitation before simultaneously reading from the well bottoms at medium PMT voltage with a 590 nm cutoff filter and six flashes per read for the Alamar Blue fluorescence signal (excitation/detection = 560/590 nm). The same hourly monitoring continued for 30 h after the addition of N-104, N-80/C-25 (negative control), or ampicillin (positive control; BP1760–5; Fisher Scientific) at a final concentration of 100 μM each. Data for each of the 3,884 strains were normalized to untreated with 10% Alamar Blue background subtracted as the ratio of the viability slope during the first 5 hours of N-104 treatment versus the slope 5 h previous.

## CC(=O)N[C@@H](C)C(=O)N[C@@H](CCC(N)=O)C(=O)N[C@@H](CCCCN)C(=O)N[C@@H](CC(C)C)C(=O)N[C@@H](CC(C)C)C(=O)N[C@@H](CCCCN)C(=O)N[C@@H](CCCCN)C(=O)N[C@@H](Cc1ccccc1)C(=O)N[C@@H](CO)C(=O)N[C@@H](CC(C)C)C(=O)N[C@@H](CC(C)C)C(=O)N[C@@H](CCCCN)C(=O)N1CCC[C@H]1C(=O)N[C@@H](Cc1c[nH]c2ccccc12)C(=O)N[C@@H](C)C(=O)O [N-104] (Ac-AQKLLKKFSLLKPWA-OH)
[1]; 0 or 50 μM N-104, 5 h, 10^7 cfu/ml, n = 3
  N-104 resistance of PA14 ΔyaiW in C. elegans survival assay: partially resistant
[1]; 100 μM N-104 without PA14, 3 days
  viability of C. elegans fed N-104 alone: did not affect viability
[1]; PA14 10^7 cfu/ml treated 5 h with 100 μM peptide (legend; method says 50 μM), fed to 50 worms for 3 days, SYTOX Orange, n = 3
  survival of C. elegans fed peptide-treated PA14: fully survived
[2]; 0, 2 or 5 μM N-104, 10^6 cfu/ml, n = 3
  N-104 resistance of PA14 ΔyaiW in CFU assay: partially resistant
[2]; 0 to 400 μM N-104 in 30 or 300 mOsm/l phosphate buffer, 8 h, n = 3
  bactericidal efficacy versus osmolarity: diminishes as osmolarity increases
[2]; PA14, 8 h
  minimum inhibitory concentration (MIC): 2 µM (≈ 3.63 µg/mL)
[3]
  treated:untreated metabolic slope ratio, ΔSbmA E. coli: 0.69
  treated:untreated metabolic slope ratio, ΔYaiW E. coli: 0.70
